The values that follow come from paper PMC4865297, “Macromolecular Crystallography and Structural Biology Databases at NIST” (Journal of Research of the National Institute of Standards …, 2001).

In test [1] the target is T1, catabolite gene activator protein (CAP) (Escherichia coli, UniProt P0ACJ8, A145T).
T1 construct: gene crp; homodimer
T1 sequence (P0ACJ8 2-210 A145T): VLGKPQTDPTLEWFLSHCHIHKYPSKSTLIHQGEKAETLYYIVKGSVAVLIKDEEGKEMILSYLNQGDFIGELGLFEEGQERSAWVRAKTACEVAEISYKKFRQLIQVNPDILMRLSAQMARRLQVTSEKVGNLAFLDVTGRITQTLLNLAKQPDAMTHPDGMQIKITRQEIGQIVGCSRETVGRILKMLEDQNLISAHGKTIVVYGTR
The experiment in a line: X-ray crystal structure, soak. It counts as binding. Conditions: crystals grown with cAMP soaked in 10 mM adenosine; bound in one subunit; text also prints the variant as Thr144Ala.

Test [2] concerns the target T2, chorismate lyase (Escherichia coli, UniProt P26602, C15S/C82S).
T2 construct: gene ubiC; monomer, 164 residues
T2 sequence (P26602 2-165 C15S/C82S): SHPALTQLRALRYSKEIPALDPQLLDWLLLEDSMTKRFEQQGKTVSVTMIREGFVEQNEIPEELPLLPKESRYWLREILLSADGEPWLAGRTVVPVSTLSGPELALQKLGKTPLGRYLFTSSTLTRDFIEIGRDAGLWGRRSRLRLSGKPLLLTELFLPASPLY
The test can be described thus: X-ray crystal structure. In kind it is binding. The following applies: both cysteines changed to serine; product complex.

SMILES strings stand for the structures.

Turning to `Nc1ncnc2c1ncn2[C@@H]1O[C@H](CO)[C@@H](O)[C@H]1O` [adenosine], the “X-ray crystal structure, soak” value in test [1] is “Adenosine was preferentially substituted for cAMP in only one of the two CAP subunits”.

Turning to `O=C(O)c1ccc(O)cc1` [4-hydroxy benzoate], the X-ray crystal structure result in test [2] was “the active double Cys-to-Ser variant complexed with product were determined”.
